Measured values from patent US12391664B2, “GluN2C/D subunit selective antagonists of the N-methyl-D-aspartate receptor” (Emory University, priority 2018, dated 2025).
Read-outs that look alike come from different tables or passages of the source.

Experiments:
Type in all cases: cell-based
[1] = biological target: T1, recombinant rat GluN1/GluN2A (Rattus norvegicus, UniProt P35439+Q00959); assay: Two-electrode voltage-clamp recordings in Xenopus laevis oocytes, GluN2A; settings: oocytes, 100 μM glutamate and 30 μM glycine
T1 construct: expressed in transfected cells; host or cells: Xenopus laevis oocytes injected with cRNA (GluN1:GluN2 ratio 1:2)
Procedure: (§1) All target compounds were evaluated for activity by the Traynelis laboratory at Emory University using two-electrode voltage-clamp recordings performed in Xenopus laevis oocytes expressing recombinant GluN2A-D subunits (Table 1). […] Two ester compounds 997-65 and 997-66 also performed no inhibition at GluN2A to GluN2D receptors. […] Consequently, for the compounds that Acker et al. already published, it was necessary to increase the concentration to 100 μM when collecting data for a concentration effect curve. […] Therefore, under this condition, we can only conclude that compound 997-67 remained potent at GluN2C/D-containing receptors, but its selectivity over GluN2A- and GluN2B-containing receptors could not be compared to 997-57. […] Finally, replacing the carboxylic acid to the bio-isostere amide yielded compounds 997-96 and 997-115, which dropped the potency 2- to 4-fold in comparison to their corresponding acids 997-74 and 997-114.
(§2) Two-electrode voltage-clamp recordings were performed in Xenopus laevis oocytes that were injected with mRNA to express recombinant rat GluN1/GluN2A, GluN1/GluN2B, GluN1/GluN2C, and GluN1/GluN2D. The recordings using unfertilized oocytes from Xenopus laevis were permitted by Emory University Institutional Animal Care and Use Committee (IACUC). An automatic injector (Nanoject II, Drummond Scientific) was used for cRNA injection using the pipettes filled with mineral oil. The cRNA that transcribed in vitro via the mMessage Machine kit (Ambion) was diluted with nuclease-free water, and then injected at GluN1/GluN2 with a ratio of 1:2. The oocytes were stored in Barth's solution that contained 88 mM NaCl, 5.0 mM Tris-HCl, 2.4 mM NaHCO3, 1.0 mM KCl, 0.84 mM MgSO4, 0.41 mM CaCl2, 0.33 mM Ca(NO3)2, 0.1 mg/ml gentamycin sulfate, 1.0 U/ml penicillin, and 1 μg/ml streptomycin at a pH of 7.4 and temperatures of 15-17° C. for two to five days before the two-electrode voltage-clamp recordings. When recording, the oocytes were placed in a perfusion chamber and continually washed with the recording solution comprised of 90 mM NaCl, 1.0 mM KCl, 0.50 mM BaCl2, 0.005 mM EDTA, and 10 mM HEPES at a pH of 7.4 and a temperature of 23° C. Glass electrodes with a tip resistance of 0.5 to 2.5 MΩ were obtained from thin-walled glass capillary tubes. Voltage electrodes and current electrodes were filled with 0.3 M and 3.0 M KCl, respectively. The recordings were executed with the oocytes membrane potential holding at −40 m V by an OC-725 amplifier (Warner Instrument Co). All compounds were dissolved in dimethyl sulfoxide (DMSO) as 20 mM stock solutions and future diluted to reach the desired concentration (0.05-0.5% (vol/vol) DMSO) in recording solution comprised of 30 μM glycine and 100 μM glutamate. Each compound was recorded 3-7 times in the least 4 oocytes from at least 2 different Xenopus laevis.
(§3) To evaluate the inhibition of compounds, the concentration-response curve was fitted with the average two-electrode voltage-clamp recording results with the equation
(§4) [formula] • where IC50 is the concentration of compounds that inhibit half maximal of the current response and N is the Hill slope.

[2] = biological target: T2, recombinant rat GluN1/GluN2B (Rattus norvegicus, UniProt P35439+Q00960); assay: Two-electrode voltage-clamp recordings in Xenopus laevis oocytes, GluN2B; settings: oocytes, 100 μM glutamate and 30 μM glycine
T2 construct: expressed in transfected cells; host or cells: Xenopus laevis oocytes injected with cRNA (GluN1:GluN2 ratio 1:2)
T2 sequence (Q00960 27-1482, other chains not shown): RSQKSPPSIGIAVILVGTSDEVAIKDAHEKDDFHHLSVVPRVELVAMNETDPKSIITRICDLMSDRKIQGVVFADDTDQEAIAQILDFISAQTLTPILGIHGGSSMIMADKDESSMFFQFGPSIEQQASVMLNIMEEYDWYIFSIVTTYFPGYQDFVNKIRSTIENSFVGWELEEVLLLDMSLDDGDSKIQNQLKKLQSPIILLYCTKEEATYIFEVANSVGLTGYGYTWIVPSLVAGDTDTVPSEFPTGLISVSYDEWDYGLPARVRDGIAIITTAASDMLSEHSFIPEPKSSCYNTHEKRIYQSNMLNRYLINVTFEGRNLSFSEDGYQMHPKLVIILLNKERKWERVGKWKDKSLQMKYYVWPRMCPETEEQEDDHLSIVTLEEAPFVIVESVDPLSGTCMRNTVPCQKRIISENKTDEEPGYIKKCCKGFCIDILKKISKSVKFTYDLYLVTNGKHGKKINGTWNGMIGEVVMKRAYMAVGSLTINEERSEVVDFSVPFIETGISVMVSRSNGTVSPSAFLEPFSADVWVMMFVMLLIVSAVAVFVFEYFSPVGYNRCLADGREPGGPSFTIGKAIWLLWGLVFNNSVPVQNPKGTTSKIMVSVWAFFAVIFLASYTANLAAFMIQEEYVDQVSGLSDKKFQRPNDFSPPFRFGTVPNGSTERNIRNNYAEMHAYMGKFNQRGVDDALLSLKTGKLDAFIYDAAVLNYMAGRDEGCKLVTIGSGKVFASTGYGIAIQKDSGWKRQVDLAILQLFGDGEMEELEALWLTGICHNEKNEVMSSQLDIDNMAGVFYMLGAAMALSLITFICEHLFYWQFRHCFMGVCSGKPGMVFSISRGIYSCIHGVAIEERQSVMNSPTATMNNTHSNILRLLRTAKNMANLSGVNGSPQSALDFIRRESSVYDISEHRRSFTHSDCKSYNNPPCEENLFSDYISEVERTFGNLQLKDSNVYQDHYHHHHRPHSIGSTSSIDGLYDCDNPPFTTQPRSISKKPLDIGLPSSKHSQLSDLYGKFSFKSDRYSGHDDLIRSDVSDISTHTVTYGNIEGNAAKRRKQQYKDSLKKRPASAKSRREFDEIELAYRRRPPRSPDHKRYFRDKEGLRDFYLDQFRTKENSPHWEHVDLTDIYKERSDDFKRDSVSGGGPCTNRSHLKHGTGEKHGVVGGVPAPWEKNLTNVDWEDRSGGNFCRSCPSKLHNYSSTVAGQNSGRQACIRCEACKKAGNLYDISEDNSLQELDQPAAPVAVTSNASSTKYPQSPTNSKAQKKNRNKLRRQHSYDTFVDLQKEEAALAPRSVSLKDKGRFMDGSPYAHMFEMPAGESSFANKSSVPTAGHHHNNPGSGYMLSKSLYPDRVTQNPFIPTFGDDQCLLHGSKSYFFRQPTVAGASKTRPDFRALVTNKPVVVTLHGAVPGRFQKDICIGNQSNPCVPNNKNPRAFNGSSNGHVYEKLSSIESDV
Procedure: as §1, §2, §3, §4

[3] = biological target: T3, recombinant rat GluN1/GluN2D (Rattus norvegicus, UniProt Q62645); assay: Two-electrode voltage-clamp recordings in Xenopus laevis oocytes, GluN2D; settings: for 2A IC50 / 2D IC50 / 2B IC50 / 2D IC50: ratio of IC50 values
T3 construct: expressed in transfected cells; host or cells: Xenopus laevis oocytes injected with cRNA (GluN1:GluN2 ratio 1:2)
T3 sequence (Q62645 28-1323, other chains not shown): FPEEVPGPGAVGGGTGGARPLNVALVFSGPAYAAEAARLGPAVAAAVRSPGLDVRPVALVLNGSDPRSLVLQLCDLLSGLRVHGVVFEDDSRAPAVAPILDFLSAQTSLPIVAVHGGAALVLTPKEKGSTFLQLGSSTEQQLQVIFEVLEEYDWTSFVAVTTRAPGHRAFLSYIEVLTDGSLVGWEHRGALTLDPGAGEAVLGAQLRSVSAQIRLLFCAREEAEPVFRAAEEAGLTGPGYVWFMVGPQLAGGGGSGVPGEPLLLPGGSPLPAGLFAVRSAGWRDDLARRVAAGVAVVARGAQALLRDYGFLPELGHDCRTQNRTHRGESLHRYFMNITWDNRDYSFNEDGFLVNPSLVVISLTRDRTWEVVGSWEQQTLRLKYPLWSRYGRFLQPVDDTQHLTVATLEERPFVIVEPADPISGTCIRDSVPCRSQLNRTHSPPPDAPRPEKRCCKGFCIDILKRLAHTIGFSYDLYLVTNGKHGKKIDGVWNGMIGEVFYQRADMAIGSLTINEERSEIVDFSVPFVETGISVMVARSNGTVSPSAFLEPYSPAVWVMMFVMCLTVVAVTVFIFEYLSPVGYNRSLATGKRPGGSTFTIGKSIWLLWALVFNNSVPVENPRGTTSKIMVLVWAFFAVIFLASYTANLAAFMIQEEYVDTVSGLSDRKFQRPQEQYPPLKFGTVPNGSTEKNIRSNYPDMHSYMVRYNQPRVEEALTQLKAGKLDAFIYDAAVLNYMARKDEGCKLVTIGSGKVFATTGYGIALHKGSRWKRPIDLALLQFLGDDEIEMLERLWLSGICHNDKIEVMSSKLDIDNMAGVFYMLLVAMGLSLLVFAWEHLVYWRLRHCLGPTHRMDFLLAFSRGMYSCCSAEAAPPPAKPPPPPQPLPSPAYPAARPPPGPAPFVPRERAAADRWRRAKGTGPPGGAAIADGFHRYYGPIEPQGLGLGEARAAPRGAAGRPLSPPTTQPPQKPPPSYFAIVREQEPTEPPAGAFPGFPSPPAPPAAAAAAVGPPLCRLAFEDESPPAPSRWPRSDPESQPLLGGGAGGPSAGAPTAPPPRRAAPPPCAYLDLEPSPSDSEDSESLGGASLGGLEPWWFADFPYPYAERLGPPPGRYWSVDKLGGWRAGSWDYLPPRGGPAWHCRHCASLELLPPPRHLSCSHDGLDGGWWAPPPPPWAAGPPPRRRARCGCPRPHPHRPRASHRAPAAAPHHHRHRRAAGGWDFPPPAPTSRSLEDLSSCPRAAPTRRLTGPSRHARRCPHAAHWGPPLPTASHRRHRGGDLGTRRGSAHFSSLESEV
Procedure: as §1, §2, §3, §4

[4] = biological target: T4, recombinant rat GluN1/GluN2C (Rattus norvegicus, UniProt P35439+Q00961); assay: Two-electrode voltage-clamp recordings in Xenopus laevis oocytes, GluN2C
T4 construct: expressed in transfected cells; host or cells: Xenopus laevis oocytes injected with cRNA (GluN1:GluN2 ratio 1:2)
T4 sequence (Q00961 20-1237, other chains not shown): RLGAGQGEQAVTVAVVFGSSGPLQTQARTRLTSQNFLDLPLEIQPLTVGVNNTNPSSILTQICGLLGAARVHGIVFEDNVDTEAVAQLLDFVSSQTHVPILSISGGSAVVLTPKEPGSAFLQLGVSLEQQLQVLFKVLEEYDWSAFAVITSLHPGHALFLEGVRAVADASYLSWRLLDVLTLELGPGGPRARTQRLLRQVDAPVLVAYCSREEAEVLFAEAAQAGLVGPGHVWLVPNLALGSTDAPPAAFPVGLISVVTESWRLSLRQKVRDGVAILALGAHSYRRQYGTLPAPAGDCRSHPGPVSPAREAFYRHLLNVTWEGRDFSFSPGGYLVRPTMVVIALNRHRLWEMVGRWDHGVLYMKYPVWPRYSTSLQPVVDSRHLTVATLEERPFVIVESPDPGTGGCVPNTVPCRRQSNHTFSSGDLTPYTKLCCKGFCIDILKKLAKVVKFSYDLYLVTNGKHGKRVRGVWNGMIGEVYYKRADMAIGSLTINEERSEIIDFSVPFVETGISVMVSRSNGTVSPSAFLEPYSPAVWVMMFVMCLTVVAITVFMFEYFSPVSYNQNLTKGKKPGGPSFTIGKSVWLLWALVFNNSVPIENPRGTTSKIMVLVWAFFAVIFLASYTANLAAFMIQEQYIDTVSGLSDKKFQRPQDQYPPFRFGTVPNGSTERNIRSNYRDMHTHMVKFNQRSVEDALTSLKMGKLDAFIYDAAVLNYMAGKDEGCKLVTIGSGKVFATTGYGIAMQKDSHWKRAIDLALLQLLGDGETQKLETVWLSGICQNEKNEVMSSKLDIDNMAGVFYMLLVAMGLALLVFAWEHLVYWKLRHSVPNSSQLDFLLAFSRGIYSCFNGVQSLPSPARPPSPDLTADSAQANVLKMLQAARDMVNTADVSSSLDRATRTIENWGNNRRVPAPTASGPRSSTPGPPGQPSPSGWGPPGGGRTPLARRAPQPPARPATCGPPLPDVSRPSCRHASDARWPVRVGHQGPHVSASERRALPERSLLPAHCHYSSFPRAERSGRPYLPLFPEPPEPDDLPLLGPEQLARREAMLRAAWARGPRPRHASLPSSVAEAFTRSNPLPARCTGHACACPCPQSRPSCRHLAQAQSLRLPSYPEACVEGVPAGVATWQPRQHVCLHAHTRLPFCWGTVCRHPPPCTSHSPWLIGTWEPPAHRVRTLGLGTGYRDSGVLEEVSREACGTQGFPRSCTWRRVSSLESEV
Procedure: as §1, §2, §3, §4

[5] = biological target: T5, recombinant rat GluN1/GluN2D (Rattus norvegicus, UniProt P35439+Q62645); assay: Two-electrode voltage-clamp recordings in Xenopus laevis oocytes, GluN2D
T5 construct: expressed in transfected cells; host or cells: Xenopus laevis oocytes injected with cRNA (GluN1:GluN2 ratio 1:2)
T5 sequence (Q62645 28-1323, other chains not shown): as the sequence (Q62645 28-1323, other chains not shown) above
Procedure: as §1, §2, §3, §4

[6] = biological target: T6, recombinant rat GluN1/GluN2A (Rattus norvegicus, UniProt Q00959); assay: Two-electrode voltage-clamp recordings in Xenopus laevis oocytes, GluN2A; settings: for GluN2A IC50: oocytes, 100 μM glutamate and 30 μM glycine
T6 construct: expressed in transfected cells; host or cells: Xenopus laevis oocytes injected with cRNA (GluN1:GluN2 ratio 1:2)
Procedure: as §1, §2, §3, §4

[7] = biological target: T7, recombinant rat GluN1/GluN2B (Rattus norvegicus, UniProt Q00960); assay: Two-electrode voltage-clamp recordings in Xenopus laevis oocytes, GluN2B; settings: 3 μM compound with 100 μM glutamate and 30 μM glycine; control set as 1
T7 construct: expressed in transfected cells; host or cells: Xenopus laevis oocytes injected with cRNA (GluN1:GluN2 ratio 1:2)
Procedure: as §1, §2, §3, §4

[8] = biological target: T8, recombinant rat GluN1/GluN2C (Rattus norvegicus, UniProt Q00961); assay: Two-electrode voltage-clamp recordings in Xenopus laevis oocytes, GluN2C; settings: 3 μM compound with 100 μM glutamate and 30 μM glycine; control set as 1
T8 construct: expressed in transfected cells; host or cells: Xenopus laevis oocytes injected with cRNA (GluN1:GluN2 ratio 1:2)
T8 sequence (Q00961 20-1237, other chains not shown): as the sequence (Q00961 20-1237, other chains not shown) above
Procedure: as §1, §2, §3, §4

[9] = oocytes, 100 μM glutamate and 30 μM glycine, read-out: GluN2C IC50
[10] = oocytes, 100 μM glutamate and 30 μM glycine, read-out: GluN2D IC50
[11] = 3 μM compound with 100 μM glutamate and 30 μM glycine, control set as 1

Row | SMILES | IC50 [1] [µM] | IC50 [2] [µM] | 2B IC50 / 2D IC50 [3] | IC50 [4, 9] [µM] | IC50 [5, 10] [µM] | other results
1 | O=C(O)CC(F)(F)C(=O)N1N=C(c2ccccc2-c2ccc(F)c(Cl)c2)CC1c1ccc(Cl)cc1 (centres unmarked) [997-120, 4-(3-(3′-chloro-4′-fluoro-[1,1′-biphenyl]-2-yl)-5-(4-chlorophenyl)-4,5-dihydro-1H-pyrazol-1-yl)-3,3-difluoro-4-oxobutanoic acid] | 11 | 8.8 | – | 5.23 | 3.36 | –
2 | O=C(O)CC(F)(F)C(=O)N1N=C(c2c(-c3ccc(Cl)cc3)c3ccccc3[nH]c2=O)C[C@H]1c1ccc(Cl)cc1 [(−)-997-74] | – | – | – | 0.094 | – | I3 μM/Icontrol (mean ± SEM, %) GluN2A [6, 11]: 67 ± 3.9%; I3 μM/Icontrol (mean ± SEM, %) GluN2B [7]: 73 ± 4.8%; IC50 ([4]; mean IC50 with bottom and top 95% confidence interval, read-out: Avg. GluN2C IC50 (95% CI)): 0.11 µM; I3 μM/Icontrol (mean ± SEM, %) GluN2C [8]: 9.3 ± 1.8%; IC50 ([5]; mean IC50 with bottom and top 95% confidence interval, read-out: Avg. GluN2D IC50 (95% CI)): 0.055 µM; IC50 ([5]; read-out: IC50 at GluN2D-containing receptors): 0.046 µM; I3 μM/Icontrol (mean ± SEM, %) GluN2D [3, 11]: 3.5 ± 1.0%; fold more potent than the (+)-enantiomer at GluN2D ([3]; (−)- versus (+)-enantiomer): 85 fold
3 | Cc1ccc2[nH]c(=O)c(C3=NN(C(=O)C(F)(F)CC(=O)O)C(c4ccc(Cl)cc4)C3)c(-c3ccc(Cl)cc3)c2c1 (centres unmarked) [997-90, 4-(5-(4-chlorophenyl)-3-(4-(4-chlorophenyl)-6-methyl-2-oxo-1,2-dihydroquinolin-3-yl)-4,5-dihydro-1H-pyrazol-1-yl)-3,3-difluoro-4-oxobutanoic acid] | 3 | 3 | – | 0.4 | 0.2 | –
4 | O=C(O)CC(F)(F)C(=O)N1N=C(c2ccccc2-c2cc(Cl)cc(Cl)c2)CC1c1ccc(Cl)cc1 (centres unmarked) [997-123, 4-(5-(4-chlorophenyl)-3-(3′,5′-dichloro-[1,1′-biphenyl]-2-yl)-4,5-dihydro-1H-pyrazol-1-yl)-3,3-difluoro-4-oxobutanoic acid] | – | 15.6 | – | 7.34 | 4.67 | GluN2A IC50 [6]: NE (NE indicates less than 50% inhibition at 30 μM.)

Further lines, with some results ahead:

Row | IC50 [1] [µM] | IC50 [2] [µM] | 2B IC50 / 2D IC50 [3] | IC50 [4, 9] [µM] | IC50 [5, 10] [µM] | SMILES | other results
5 | 11 | 6.9 | 138 | – | – | O=C(O)CC(F)(F)C(=O)N1N=C(c2c(-c3ccc(Cl)cc3)c3ccccc3[nH]c2=O)CC1c1ccc(Cl)cc1 (centres unmarked) [997-74, 4-(5-(4-chlorophenyl)-3-(4-(4-chlorophenyl)-2-oxo-1,2-dihydroquinolin-3-yl)-4,5-dihydro-1H-pyrazol-1-yl)-3,3-difluoro-4-oxobutanoic acid] | selectivity at GluN2D- over GluN2A-containing receptor [3]: approximately 220 fold; 2A IC50 / 2D IC50 [3]: 220
6 | 28 | 48 | 96 | – | – | O=C(CC(F)(F)C(=O)O)N1N=C(c2c(-c3cccc(F)c3)c3ccccc3[nH]c2=O)CC1c1ccc(Cl)cc1 (centres unmarked) [997-69, 4-{5-(4-chlorophenyl)-3-[4-(3-fluorophenyl)-2-oxo-1,2-dihydroquinolin-3-yl]-4,5-dihydro-1H-pyrazol-1-yl}-2,2-difluoro-4-oxobutanoic acid] | 2A IC50 / 2D IC50 [3]: 56
7 | – | 23.1 | 3 | 12.1 | 7.41 | O=C(O)CC(F)(F)C(=O)N1N=C(c2ccccc2-c2ccc(Cl)cc2)CC1c1ccc(F)cc1 (centres unmarked) [997-116, 4-(3-(4′-chloro-[1,1′-biphenyl]-2-yl)-5-(4-fluorophenyl)-4,5-dihydro-1H-pyrazol-1-yl)-3,3-difluoro-4-oxobutanoic acid] | GluN2A IC50 [6]: NE (NE indicates less than 50% inhibition at 30 μM.)
